Laboratory results published in ChEMBL document CHEMBL1139137, “Modifications of the GSK3beta substrate sequence to produce substrate-mimetic inhibitors of Akt as potential anti-cancer therapeutics” (Bioorg Med Chem Lett, 2007).
Starred links: 1 amine or outer side, 2 acyl side, 3 side chain; linkers in the order of their positions; H or OH if unused. Non-standard residues stand in square brackets, D forms with d. Residues, ends and D or L forms follow the SMILES beside them. *: point of attachment. NH(2-(1-naphthyl)ethyl) = c1ccc2c(CCN*)cccc2c1; NHCH2CH2(piperidin-1-yl) = C1CCN(CCN*)CC1; X4 = c1ccc(CC2CCN(CCN*)CC2)cc1; X1 = CC(=O)Nc1cccc(OCCCN*)c1; X2 = c1ccc2cc(CCN*)ccc2c1; 4Abz = Nc1ccc(C(=O)O)cc1; X3 = CCCCCc1ccc(CN*)cc1; CO = O=C([*:1])[*:2]; NHBn = c1ccc(CN*)cc1; NHHex = CCCCCCN*

What follows are compounds tested against RAC-alpha serine/threonine-protein kinase (Homo sapiens, UniProt P31749) (assay: Inhibition of Akt after 1 hr by fluorescence polarization assay).
Sequence of RAC-alpha serine/threonine-protein kinase (P31749 whole entry): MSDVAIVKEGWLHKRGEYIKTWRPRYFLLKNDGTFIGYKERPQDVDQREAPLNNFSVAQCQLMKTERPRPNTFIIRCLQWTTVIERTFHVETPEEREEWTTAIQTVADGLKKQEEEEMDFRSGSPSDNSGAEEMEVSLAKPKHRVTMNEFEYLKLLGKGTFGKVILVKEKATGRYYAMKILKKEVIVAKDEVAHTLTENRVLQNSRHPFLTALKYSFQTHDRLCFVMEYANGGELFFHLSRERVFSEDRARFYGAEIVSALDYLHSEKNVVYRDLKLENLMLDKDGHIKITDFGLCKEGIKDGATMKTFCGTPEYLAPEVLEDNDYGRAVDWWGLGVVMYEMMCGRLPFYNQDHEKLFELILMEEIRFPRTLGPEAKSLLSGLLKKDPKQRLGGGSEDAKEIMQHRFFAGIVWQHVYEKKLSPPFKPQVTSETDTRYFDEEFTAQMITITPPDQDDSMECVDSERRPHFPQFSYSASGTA

Row | Compound | IC50 [µM]
1 | CCCCCc1ccc(CNC(=O)[C@H](Cc2ccccc2)NC(=O)[C@@H](NC(=O)c2ccc(NC(=O)[C@H](CCCN=C(N)N)NC(C)=O)cc2)C(C)C)cc1 | 104
2 | CC(C)[C@H](NC(=O)c1ccc(CNC(=N)N)cc1)C(=O)N[C@@H](Cc1ccccc1)C(=O)NCc1ccccc1 | > 500
3 | CC(=O)NCC(=O)N[C@@H](CCCNC(=N)N)C(=O)N1CCC[C@H]1C(=O)N[C@@H](CCCNC(=N)N)C(=O)N[C@@H](C)C(=O)N[C@@H](C)C(=O)N[C@H](C(=O)N[C@@H](Cc1ccccc1)C(=O)NCc1ccccc1)C(C)C (Ac-GRPRAAVF-NHBn) | 438
4 | CC(=O)NCC(=O)N[C@@H](CCCN=C(N)N)C(=O)N1CCC[C@H]1C(=O)N[C@@H](CCCN=C(N)N)C(=O)Nc1ccc(C(=O)N[C@H](C(=O)N[C@@H](Cc2ccccc2)C(=O)NCCc2ccc3ccccc3c2)C(C)C)cc1 (Ac-GRPR[4Abz]VF-X2) | 36
5 | CC(=O)N[C@@H](CCCN=C(N)N)C(=O)Nc1ccc(C(=O)N[C@H](C(=O)N[C@@H](Cc2ccccc2)C(=O)NCc2ccccc2)C(C)C)cc1 (Ac-R[4Abz]VF-NHBn) | 119
6 | C[C@@H](O)[C@H](NC(=O)[C@H](CCCNC(=N)N)NC(=O)[C@@H]1CCCN1C(=O)[C@H](CCCNC(=N)N)NC(=O)CNC(=O)O)C(=O)N[C@H](C(=O)N[C@@H](CC(N)=O)C(=O)N[C@@H](Cc1ccccc1)C(=O)O)[C@@H](C)O ({CO}-GRPRTTNF-OH) | 229
7 | Ac-GRPRTTAF-OH | 409
8 | CC(=O)NCC(=O)N[C@@H](CCCNC(=N)N)C(=O)N1CCC[C@H]1C(=O)N[C@@H](CCCNC(=N)N)C(=O)Nc1ccc(C(=O)N[C@H](C(=O)N[C@@H](Cc2ccccc2)C(=O)NCCN2CCC(Cc3ccccc3)CC2)C(C)C)cc1 (Ac-GRPR[4Abz]VF-X4) | 94
9 | CC(=O)NCC(=O)N[C@@H](CCCNC(=N)N)C(=O)N1CCC[C@H]1C(=O)N[C@@H](CCCNC(=N)N)C(=O)Nc1ccc(C(=O)N[C@H](C(=O)N[C@@H](Cc2ccccc2)C(=O)NCCc2cccc3ccccc23)C(C)C)cc1 (Ac-GRPR[4Abz]VF-{NH(2-(1-naphthyl)ethyl)}) | 62
10 | CCCCCc1ccc(CNC(=O)[C@H](Cc2ccccc2)NC(=O)[C@@H](NC(=O)c2ccc(NC(=O)[C@H](CCCN=C(N)N)NC(=O)[C@@H]3CCCN3C(=O)[C@H](CCCN=C(N)N)NC(=O)CNC(C)=O)cc2)C(C)C)cc1 (Ac-GRPR[4Abz]VF-X3) | 96
11 | CC(=O)NCC(=O)N[C@@H](C)C(=O)N1CCC[C@H]1C(=O)N[C@@H](CCCNC(=N)N)C(=O)Nc1ccc(C(=O)N[C@H](C(=O)N[C@@H](Cc2ccccc2)C(=O)NCc2ccccc2)C(C)C)cc1 (Ac-GAPR[4Abz]VF-NHBn) | 41
12 | CC(=O)N[C@@H](CCCN=C(N)N)C(=O)Nc1ccc(C(=O)N[C@H](C(=O)N[C@@H](Cc2ccccc2)C(=O)NCCc2ccc3ccccc3c2)C(C)C)cc1 | 51
13 | Ac-GRPRTTHF-OH | > 500
14 | CC(=O)NCC(=O)N[C@@H](CCCNC(=N)N)C(=O)N1CCC[C@H]1C(=O)N[C@@H](CCCNC(=N)N)C(=O)N[C@H](C(=O)N[C@H](C(=O)N[C@H](C(=O)N[C@@H](Cc1ccccc1)C(=O)NCc1ccccc1)C(C)C)[C@@H](C)O)[C@@H](C)O (Ac-GRPRTTVF-NHBn) | 239
15 | CC(=O)NCC(=O)N[C@@H](CCCNC(=N)N)C(=O)N1CCC[C@H]1C(=O)N[C@@H](CCCNC(=N)N)C(=O)Nc1ccc(C(=O)N[C@H](C(=O)N[C@@H](Cc2ccccc2)C(=O)NCCCOc2cccc(NC(C)=O)c2)C(C)C)cc1 (Ac-GRPR[4Abz]VF-X1) | 322
16 | CC(=O)N[C@@H](CCCNC(=N)N)C(=O)Nc1ccc(C(=O)N[C@H](C(=O)N[C@@H](Cc2ccccc2)C(=O)NCCc2cccc3ccccc23)C(C)C)cc1 | 89
17 | CC(C)[C@H](NC(=O)c1ccc(NC(=O)CCCCNC(=N)N)cc1)C(=O)N[C@@H](Cc1ccccc1)C(=O)NCc1ccccc1 | 193
18 | CCCCCCNC(=O)[C@H](Cc1ccccc1)NC(=O)[C@@H](NC(=O)c1ccc(NC(=O)[C@H](CCCN=C(N)N)NC(=O)[C@@H]2CCCN2C(=O)[C@H](CCCN=C(N)N)NC(=O)CNC(C)=O)cc1)C(C)C (Ac-GRPR[4Abz]VF-NHHex) | 52
19 | CC(=O)NCC(=O)N[C@@H](CCCNC(=N)N)C(=O)N1CCC[C@H]1C(=O)N[C@@H](CCCNC(=N)N)C(=O)Nc1ccc(C(=O)N[C@H](C(=O)N[C@@H](Cc2ccccc2)C(=O)NCCN2CCCCC2)C(C)C)cc1 (Ac-GRPR[4Abz]VF-{NHCH2CH2(piperidin-1-yl)}) | > 500

Results, then the compound that gave them:

Row | IC50 [µM] | Compound
20 | 58 | CC(C)[C@H](NC(=O)c1ccc(N(CC(=O)NC(C)(C)C)C(=O)CCCCNC(=N)N)cc1)C(=O)N[C@@H](Cc1ccccc1)C(=O)NCc1ccccc1
21 | 79 | CC(=O)NCC(=O)N[C@@H](CCCN=C(N)N)C(=O)N1CCC[C@H]1C(=O)N[C@@H](C)C(=O)Nc1ccc(C(=O)N[C@H](C(=O)N[C@@H](Cc2ccccc2)C(=O)NCc2ccccc2)C(C)C)cc1 (Ac-GRPA[4Abz]VF-NHBn)
22 | 390 | CC(C)[C@H](NC(=O)c1ccc(NCCNC(=N)N)cc1)C(=O)N[C@@H](Cc1ccccc1)C(=O)NCc1ccccc1
23 | > 500 | CC(=O)NCC(=O)N[C@@H](C)C(=O)N1CCC[C@H]1C(=O)N[C@@H](C)C(=O)Nc1ccc(C(=O)N[C@H](C(=O)N[C@@H](Cc2ccccc2)C(=O)NCc2ccccc2)C(C)C)cc1 (Ac-GAPA[4Abz]VF-NHBn)
24 | 14 | CC(C)[C@H](NC(=O)c1ccc(N(CC(=O)NCc2ccccc2)C(=O)CCCCNC(=N)N)cc1)C(=O)N[C@@H](Cc1ccccc1)C(=O)NCc1ccccc1
25 | 120 | CC(C)[C@H](NC(=O)c1ccc(CCN=C(N)N)cc1)C(=O)N[C@@H](Cc1ccccc1)C(=O)NCc1ccccc1
26 | 445 | Ac-GRPRTTVF-OH
27 | 163 | CCCCCCNC(=O)[C@H](Cc1ccccc1)NC(=O)[C@@H](NC(=O)c1ccc(NC(=O)[C@H](CCCNC(=N)N)NC(C)=O)cc1)C(C)C
28 | 241 | Ac-GRPRTTCF-OH
29 | 77 | CC(C)[C@H](NC(=O)c1ccc(NC(=N)N)cc1)C(=O)N[C@@H](Cc1ccccc1)C(=O)NCc1ccccc1
30 | > 500 | Ac-GRPRTTWF-OH
31 | > 500 | Ac-GRPRTTFF-OH
